Measured values reported in PubChem BioAssay AID330 (DTP/NCI, 2004).
Where “and” joins values, the source holds several entries; their conditions need not be identical. Equal values may be shown once. Inconclusive results and toxic doses are left out. How the source made its calls: active means survival T/C of 150% or more; inactive means T/C below 125% in these data.

Test system: P388 leukemia ip, CD2F1 mice, survival T/C
Assay: NCI In Vivo Anticancer Drug Screen. Data for tumor model P388 Leukemia (intraperitoneal) in CD2F1 (CDF1) mice
Settings: endpoint: median survival time, higher = longer survival
In short: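 Mice carrying the transplanted tumor received test compound or vehicle. Survival was recorded in each group, and the value is the treated-group measurement divided by that of the vehicle-treated control group.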

[1] = dose: 100.0 mg/kg/injection, schedule: Q04DX002 (ip), vehicle: Klucel (hydroxypropylcellulose) (HPC)
[2] = dose: 200.0 mg/kg/injection, schedule: Q04DX002 (ip), vehicle: Klucel (hydroxypropylcellulose) (HPC)
[3] = dose: 400.0 mg/kg/injection, schedule: Q04DX002 (ip), vehicle: Klucel (hydroxypropylcellulose) (HPC)
[4] = dose: 60.0 mg/kg/injection, schedule: Q01DX005 (ip), vehicle: saline with Tween-80
[5] = dose: 120.0 mg/kg/injection, schedule: Q01DX005 (ip), vehicle: saline with Tween-80
[6] = dose: 240.0 mg/kg/injection, schedule: Q01DX005 (ip), vehicle: saline with Tween-80
[7] = dose: 100.0 mg/kg/injection, schedule: Q01DX001 (ip), vehicle: saline with Tween-80
[8] = dose: 200.0 mg/kg/injection, schedule: Q01DX001 (ip), vehicle: saline with Tween-80
[9] = dose: 400.0 mg/kg/injection, schedule: Q01DX001 (ip), vehicle: saline with Tween-80
[10] = dose: 50.0 mg/kg/injection, schedule: Q01DX009 (ip), vehicle: Klucel (hydroxypropylcellulose) (HPC)
[11] = dose: 100.0 mg/kg/injection, schedule: Q01DX009 (ip), vehicle: Klucel (hydroxypropylcellulose) (HPC)
[12] = dose: 200.0 mg/kg/injection, schedule: Q01DX009 (ip), vehicle: Klucel (hydroxypropylcellulose) (HPC)
[13] = dose: 25.0 mg/kg/injection, schedule: Q01DX009 (ip), vehicle: saline with Tween-80
[14] = dose: 50.0 mg/kg/injection, schedule: Q01DX009 (ip), vehicle: saline with Tween-80
[15] = dose: 100.0 mg/kg/injection, schedule: Q01DX009 (ip), vehicle: saline with Tween-80
[16] = dose: 200.0 mg/kg/injection, schedule: Q01DX009 (ip), vehicle: saline with Tween-80
[17] = dose: 50.0 mg/kg/injection, schedule: Q01DX005 (ip), vehicle: saline with Tween-80
[18] = dose: 100.0 mg/kg/injection, schedule: Q01DX005 (ip), vehicle: saline with Tween-80
[19] = dose: 200.0 mg/kg/injection, schedule: Q01DX005 (ip), vehicle: saline with Tween-80
[20] = dose: 50.0 mg/kg/injection, schedule: Q01DX009 (ip), vehicle: saline
[21] = dose: 100.0 mg/kg/injection, schedule: Q01DX009 (ip), vehicle: saline
[22] = dose: 50.0 mg/kg/injection, schedule: Q01DX005 (ip), vehicle: Klucel (hydroxypropylcellulose) (HPC)
[23] = dose: 100.0 mg/kg/injection, schedule: Q01DX005 (ip), vehicle: Klucel (hydroxypropylcellulose) (HPC)
[24] = dose: 200.0 mg/kg/injection, schedule: Q01DX005 (ip), vehicle: Klucel (hydroxypropylcellulose) (HPC)

Measured: T/C

CCCCCCCCCCCCCCCC[N+]1(CCC(C)C)CCOCC1
inactive: [1] 100 % of control | [2] 94 % of control | [3] 104 % of control

O=C1C(O)=C(c2ccccc2)C12CSC1(CS2)C(=O)C(O)=C1c1ccccc1 (stereo not given)
inactive: [4] 100 % of control | [5] 94 % of control | [6] 91 % of control

CNC(=S)N/N=C(C)/C=C/c1ccc(OC)cc1
inactive: [1] 104 % of control | [2] 100 % of control | [3] 91 % of control

COc1cc2c(O)c(c1)CCCC1=CC(=O)C=C(CCC2)C1=O
inactive: [7] 99 % of control | [8] 101 % of control | [9] 94 % of control

COc1ccc2c(=O)c(Cc3ccccc3)coc2c1
inactive: [4] 100 % of control | [5] 97 % of control | [6] 100 % of control

Nc1cc(C(CC(=O)NO)NO)ccc1[N+](=O)[O-] (stereo not given)
inactive: [10] 94 % of control | [11] 110 % of control | [12] 102 % of control

CS(=O)(=O)N1COC(=O)[C@@H]1c1ccccc1
inactive: [4] 100 % of control | [5] 101 % of control | [6] 101 % of control

O=C(Nc1ccccc1O)C1C(=O)C(=O)N(c2ccccc2O)C1=O (stereo not given)
inactive: [13] 97 % of control | [10] 101 % of control and 105 % of control and 107 % of control | [14] 105 % of control | [11] 99 % of control and 101 % of control (2×) | [15] 97 % of control | [12] 106 % of control | [16] 102 % of control

COc1ccc2c(C#N)cc3c(c[n+](C)c4ccccc34)c2c1
inactive: dose: 12.5 mg/kg/injection, schedule: Q04DX003 (ip), vehicle: distilled water + Tween-80 105 % of control | dose: 25.0 mg/kg/injection, schedule: Q04DX003 (ip), vehicle: distilled water + Tween-80 115 % of control

COc1cc(C[C@@H]([C@@H](CO)Cc2ccc3c(c2)OCO3)[C@H](O)CO)cc(OC)c1OC
inactive: dose: 6.25 mg/kg/injection, schedule: Q04DX002 (ip), vehicle: acetone 103 % of control | dose: 12.5 mg/kg/injection, schedule: Q04DX002 (ip), vehicle: acetone 100 % of control | dose: 25.0 mg/kg/injection, schedule: Q04DX002 (ip), vehicle: acetone 100 % of control

CCOC1(C)OC2OC(COC(C)=O)C(OC(C)=O)C(OC(N)=O)C2O1 (stereo not given)
inactive: [17] 97 % of control | [18] 92 % of control | [19] 92 % of control

Cc1ccccc1-n1c(=S)n(-c2ccccn2)c2nc3ccccc3nc1/c2=N/Nc1ccccn1
inactive: [17] 110 % of control | [18] 97 % of control

Cc1ccc(S(=O)(=O)N/N=C/c2c(Cl)n(C(=O)c3ccccc3C)c3ccccc23)cc1
inactive: dose: 100.0 mg/kg/injection, schedule: Q01DX001 (ip), vehicle: Klucel (hydroxypropylcellulose) (HPC) 97 % of control | dose: 200.0 mg/kg/injection, schedule: Q01DX001 (ip), vehicle: Klucel (hydroxypropylcellulose) (HPC) 91 % of control | dose: 400.0 mg/kg/injection, schedule: Q01DX001 (ip), vehicle: Klucel (hydroxypropylcellulose) (HPC) 89 % of control

COC(=O)NC[Si](C)(C)C
inactive: dose: 15.0 mg/kg/injection, schedule: Q01DX005 (ip), vehicle: saline with Tween-80 105 % of control | dose: 30.0 mg/kg/injection, schedule: Q01DX005 (ip), vehicle: saline with Tween-80 106 % of control | [4] 103 % of control

NC(CC(=O)O)CC(=O)O
inactive: dose: 25.0 mg/kg/injection, schedule: Q01DX005 (ip), vehicle: saline with Tween-80 93 % of control | [17] 95 % of control | [18] 98 % of control | [19] 90 % of control | dose: 400.0 mg/kg/injection, schedule: Q01DX005 (ip), vehicle: saline with Tween-80 89 % of control

CCOC(=O)[C@H]1C(CC)=NOC1C (stereo not given in full)
inactive: [4] 102 % of control | [5] 102 % of control | [6] 101 % of control

O=S=C(c1ccccc1)N1CCc2ccccc21
inactive: dose: 25.0 mg/kg/injection, schedule: Q01DX009 (ip), vehicle: saline 97 % of control | [20] 97 % of control | [21] 89 % of control

CCCCC(C)(CN(C)C)C(=O)/C=C/c1ccccc1 (stereo not given)
inactive: [20] 108 % of control | [21] 115 % of control | dose: 200.0 mg/kg/injection, schedule: Q01DX009 (ip), vehicle: saline 86 % of control

CCCCC1SC2=NCCN2C1(O)c1ccc(Cl)cc1 (stereo not given)
inactive: [22] 113 % of control | [23] 109 % of control

O=C(O)CNc1ccccc1.[Cu+2]
inactive: dose: 6.25 mg/kg/injection, schedule: Q01DX001 (ip), vehicle: Klucel (hydroxypropylcellulose) (HPC) 98 % of control | dose: 12.5 mg/kg/injection, schedule: Q01DX001 (ip), vehicle: Klucel (hydroxypropylcellulose) (HPC) 98 % of control | dose: 25.0 mg/kg/injection, schedule: Q01DX001 (ip), vehicle: Klucel (hydroxypropylcellulose) (HPC) 101 % of control and 112 % of control

Cc1ccc2sc3c(ccc(=O)n3C)c(=O)c2c1
inactive: dose: 100.0 mg/kg/injection, schedule: Q04DX002 (ip), vehicle: saline with Tween-80 115 % of control | dose: 200.0 mg/kg/injection, schedule: Q04DX002 (ip), vehicle: saline with Tween-80 120 % of control

CC(C)CCC1(CCBr)C(=O)NC(=Nc2ccccc2)NC1=O (stereo not given)
inactive: [13] 96 % of control | [14] 98 % of control | [15] 100 % of control | [16] 100 % of control

O.Oc1ccccc1C=NCCC[N-]CCCN=Cc1ccccc1O.[Co]
inactive: dose: 3.13 mg/kg/injection, schedule: Q01DX009 (ip), vehicle: saline with Tween-80 102 % of control | dose: 6.25 mg/kg/injection, schedule: Q01DX009 (ip), vehicle: saline with Tween-80 102 % of control | dose: 12.5 mg/kg/injection, schedule: Q01DX009 (ip), vehicle: saline with Tween-80 123 % of control | [13] 100 % of control and 115 % of control

C[Si](Cn1ccc(=O)[nH]c1=O)(c1ccccc1)c1ccccc1
inactive: [7] 109 % of control | [8] 100 % of control | [9] 95 % of control

O=C(O)C(Cc1ccc(O)cc1)NS(=O)(=O)Cc1ccccc1 (stereo not given)
inactive: dose: 100.0 mg/kg/injection, schedule: Q01DX009 (ip), vehicle: DMSO 99 % of control | dose: 200.0 mg/kg/injection, schedule: Q01DX009 (ip), vehicle: DMSO 92 % of control

COc1ccc(S(=O)(=O)N2OC2c2ccccc2)cc1 (stereo not given)
inactive: [10] 100 % of control | [11] 100 % of control

COC(=O)C1C(=O)C2OC1C1OC(C)(C)OC21 (stereo not given)
inactive: [22] 94 % of control | [23] 103 % of control | [24] 104 % of control

CCCCCCCCCCCCCCCC(=O)N(CCCCN(C)C)CCCCN(C)C
inactive: dose: 1.0 mg/kg/injection, schedule: Q01DX009 (ip), vehicle: saline 86 % of control and 95 % of control | dose: 2.0 mg/kg/injection, schedule: Q01DX009 (ip), vehicle: saline 97 % of control | dose: 4.0 mg/kg/injection, schedule: Q01DX009 (ip), vehicle: saline 97 % of control | dose: 8.0 mg/kg/injection, schedule: Q01DX009 (ip), vehicle: saline 103 % of control

CN(C)C1(C)CCC2C3CCC4=CC(=O)CCC4(C)C3CCC21C (stereo not given)
inactive: [22] 97 % of control | [23] 97 % of control | [24] 100 % of control

CC1=CC(=N\S(=O)(=O)c2ccccc2)/c2ccccc2/C1=N/S(=O)(=O)c1ccccc1
inactive: dose: 12.5 mg/kg/injection, schedule: Q01DX001 (ip), vehicle: saline with Tween-80 104 % of control | dose: 25.0 mg/kg/injection, schedule: Q01DX001 (ip), vehicle: saline with Tween-80 100 % of control | dose: 50.0 mg/kg/injection, schedule: Q01DX001 (ip), vehicle: saline with Tween-80 95 % of control

CC(CN(C)C)C(=O)/C=C/c1ccc(F)c(F)c1 (stereo not given)
inactive: dose: 60.0 mg/kg/injection, schedule: Q01DX005 (ip), vehicle: saline 100 % of control and 103 % of control | dose: 120.0 mg/kg/injection, schedule: Q01DX005 (ip), vehicle: saline 116 % of control and 124 % of control
